Test results published in ChEMBL document CHEMBL1201861, “Genomics of Drug Sensitity in Cancer screening data, Wellcome Trust Sanger Institute”.

Assays:
Test in all cases: cells
[1] = test system: HO-1-N-1; assay type: functional, cell-based, Homo sapiens; conditions: Homo sapiens, HO-1-N-1;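 note: growth inhibition of human HO-1-N-1 cells, read out with a cell viability assay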
Description: SANGER: Inhibition of human HO-1-N-1 cell growth in a cell viability assay.

[2] = test system: LB831-BLC; assay type: functional, cell-based, Homo sapiens; conditions: Homo sapiens, LB831-BLC;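 note: growth inhibition of LB831-BLC cells, read out with a cell viability assay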
Description: SANGER: Inhibition of human LB831-BLC cell growth in a cell viability assay.

[3] = test system: FaDu; assay type: functional, cell-based, Homo sapiens; conditions: Homo sapiens, FaDu;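 note: cell viability readout of growth inhibition in FaDu cells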
Description: SANGER: Inhibition of human FADU cell growth in a cell viability assay.

[4] = test system: CW-2; assay type: functional, cell-based, Homo sapiens; conditions: Homo sapiens, CW-2;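 note: growth inhibition of CW-2 cells, read out by a cell viability assay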
Description: SANGER: Inhibition of human CW-2 cell growth in a cell viability assay.

[5] = test system: NCI-H1693; assay type: functional, cell-based, Homo sapiens; conditions: Homo sapiens, NCI-H1693;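 note: growth inhibition of the human cell line, read out with a cell viability assay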
Description: SANGER: Inhibition of human NCI-H1693 cell growth in a cell viability assay.

[6] = test system: SK-MES-1; assay type: functional, cell-based, Homo sapiens; conditions: Homo sapiens, SK-MES-1;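 note: growth inhibition of human SK-MES-1 cells, read out with a cell viability assay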
Description: SANGER: Inhibition of human SK-MES-1 cell growth in a cell viability assay.

[7] = test system: A204; assay type: functional, cell-based, Homo sapiens; conditions: Homo sapiens, A204;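 note: growth inhibition of human A204 cells, read out with a cell viability assay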
Description: SANGER: Inhibition of human A204 cell growth in a cell viability assay.

[8] = test system: YAPC; assay type: functional, cell-based, Homo sapiens; conditions: Homo sapiens, YAPC;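 note: growth inhibition of YAPC cells, measured with a cell viability assay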
Description: SANGER: Inhibition of human YAPC cell growth in a cell viability assay.

[9] = test system: BT-20; assay type: functional, cell-based, Homo sapiens; conditions: Homo sapiens, BT-20;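 note: cell viability assay measuring suppression of growth in human BT-20 cells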
Description: SANGER: Inhibition of human BT-20 cell growth in a cell viability assay.

[10] = test system: CAL-54; assay type: functional, cell-based, Homo sapiens; conditions: Homo sapiens, CAL-54;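 note: growth inhibition of CAL-54 cells, read out by a viability measurement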
Description: SANGER: Inhibition of human CAL-54 cell growth in a cell viability assay.

[11] = test system: Mo; assay type: functional, cell-based; conditions: Homo sapiens
Description: SANGER: Inhibition of human Mo-T cell growth in a cell viability assay.

[12] = test system: HGC-27; assay type: functional, cell-based, Homo sapiens; conditions: Homo sapiens, HGC-27;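 note: growth inhibition of human HGC-27 cells, read out in a cell viability assay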
Description: SANGER: Inhibition of human HGC-27 cell growth in a cell viability assay.

[13] = test system: NCI-H2087; assay type: functional, cell-based, Homo sapiens; conditions: Homo sapiens, NCI-H2087;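 note: growth inhibition determined with a cell viability readout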
Description: SANGER: Inhibition of human NCI-H2087 cell growth in a cell viability assay.

[14] = test system: MDA-MB-231; assay type: functional, cell-based, Homo sapiens; conditions: Homo sapiens, MDA-MB-231
Description: SANGER: Inhibition of human MDA-MB-231 cell growth in a cell viability assay.

[15] = test system: OCI-AML2; assay type: functional, cell-based; conditions: Homo sapiens;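 note: growth inhibition of OCI-AML2 cells, read out with a cell viability assay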
Description: SANGER: Inhibition of human OCI-AML2 cell growth in a cell viability assay.

[16] = test system: NTERA-2-cl-D1; assay type: functional, cell-based, Homo sapiens; conditions: Homo sapiens, NTERA-2-cl-D1;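 note: inhibition of cell growth, measured with a cell viability assay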
Description: SANGER: Inhibition of human NTERA-S-cl-D1 cell growth in a cell viability assay.

[17] = test system: EM-2; assay type: functional, cell-based; conditions: Homo sapiens;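 note: growth inhibition of EM-2 cells, read out with a cell viability assay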
Description: SANGER: Inhibition of human EM-2 cell growth in a cell viability assay.

[18] = test system: ASPC1; assay type: functional, cell-based, Homo sapiens; conditions: Homo sapiens, ASPC1;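 note: growth inhibition of AsPC-1 cells, read out with a cell viability assay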
Description: SANGER: Inhibition of human AsPC-1 cell growth in a cell viability assay.

[19] = test system: T98G; assay type: functional, cell-based, Homo sapiens; conditions: Homo sapiens, T98G;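 note: growth inhibition of T98G cells, read out by a cell viability assay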
Description: SANGER: Inhibition of human T98G cell growth in a cell viability assay.

[20] = test system: CAS-1; assay type: functional, cell-based, Homo sapiens; conditions: Homo sapiens, CAS-1;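 note: growth inhibition of CAS-1 cells, measured with a cell viability assay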
Description: SANGER: Inhibition of human CAS-1 cell growth in a cell viability assay.

[21] = test system: MOLT-4; assay type: functional, cell-based; conditions: Homo sapiens;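 note: growth inhibition of MOLT-4 cells, determined with a cell viability readout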
Description: SANGER: Inhibition of human MOLT-4 cell growth in a cell viability assay.

[22] = test system: SK-NEP-1; assay type: functional, cell-based; conditions: Homo sapiens;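 note: growth inhibition of human SK-NEP-1 cells, read out by a cell viability assay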
Description: SANGER: Inhibition of human SK-NEP-1 cell growth in a cell viability assay.

[23] = test system: 8305C; assay type: functional, cell-based, Homo sapiens; conditions: Homo sapiens, 8305C
Description: SANGER: Inhibition of human 8305C cell growth in a cell viability assay.

[24] = test system: HCC2218; assay type: functional, cell-based; conditions: Homo sapiens;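 note: cell viability assay read-out, with IC50 given as the concentration that inhibits growth of the cell line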
Description: SANGER: Inhibition of human HCC2218 cell growth in a cell viability assay.

[25] = test system: ACHN; assay type: functional, cell-based, Homo sapiens; conditions: Homo sapiens, ACHN;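 note: cell viability read-out used to gauge how strongly growth of human ACHN cells is suppressed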
Description: SANGER: Inhibition of human ACHN cell growth in a cell viability assay.

[26] = test system: HT-3; assay type: functional, cell-based, Homo sapiens; conditions: Homo sapiens, HT-3;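 note: growth inhibition measured with a cell viability readout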
Description: SANGER: Inhibition of human HT-3 cell growth in a cell viability assay.

[27] = test system: SNU-5; assay type: functional, cell-based; conditions: Homo sapiens;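 note: cell viability readout used to measure growth inhibition in human NCI-SNU-5 cells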
Description: SANGER: Inhibition of human NCI-SNU-5 cell growth in a cell viability assay.

[28] = test system: D-336MG; assay type: functional, cell-based, Homo sapiens; conditions: Homo sapiens, D-336MG
Description: SANGER: Inhibition of human D-336MG cell growth in a cell viability assay.

[29] = test system: HuP-T3; assay type: functional, cell-based, Homo sapiens; conditions: Homo sapiens, HuP-T3;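 note: HuP-T3 cell growth inhibition, read out with a cell viability assay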
Description: SANGER: Inhibition of human HuP-T3 cell growth in a cell viability assay.

[30] = test system: HCT-116; assay type: functional, cell-based, Homo sapiens; conditions: Homo sapiens, HCT-116
Description: SANGER: Inhibition of human HCT-116 cell growth in a cell viability assay.

[31] = test system: C2BBe1; assay type: functional, cell-based, Homo sapiens; conditions: Homo sapiens, C2BBe1;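 note: growth inhibition of C2BBe1 cells, read out through a viability assay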
Description: SANGER: Inhibition of human C2BBe1 cell growth in a cell viability assay.

[32] = test system: KM12; assay type: functional, cell-based, Homo sapiens; conditions: Homo sapiens, KM12;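 note: KM12 cell growth inhibition, read out with a cell viability assay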
Description: SANGER: Inhibition of human KM12 cell growth in a cell viability assay.

[33] = test system: VM-CUB-1; assay type: functional, cell-based; conditions: Homo sapiens;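 note: cell viability assay measuring growth inhibition of the human VM-CUB-1 cell line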
Description: SANGER: Inhibition of human VM-CUB-1 cell growth in a cell viability assay.

[34] = test system: MFM-223; assay type: functional, cell-based, Homo sapiens; conditions: Homo sapiens, MFM-223
Description: SANGER: Inhibition of human MFM-223 cell growth in a cell viability assay.

[35] = test system: GT3TKB; assay type: functional, cell-based, Homo sapiens; conditions: Homo sapiens, GT3TKB;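 note: growth inhibition of the cell line, read out with a cell viability assay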
Description: SANGER: Inhibition of human GT3TKB cell growth in a cell viability assay.

[36] = test system: DOHH-2; assay type: functional, cell-based; conditions: Homo sapiens;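 note: growth inhibition of human DOHH-2 cells, read out with a cell viability assay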
Description: SANGER: Inhibition of human DOHH-2 cell growth in a cell viability assay.

[37] = test system: HCC1419; assay type: functional, cell-based, Homo sapiens; conditions: Homo sapiens, HCC1419;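 note: growth inhibition of human HCC1419 cells, read out as cell viability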
Description: SANGER: Inhibition of human HCC1419 cell growth in a cell viability assay.

[38] = test system: LNCaP-Clone-FGC; assay type: functional, cell-based, Homo sapiens; conditions: Homo sapiens, LNCaP-Clone-FGC
Description: SANGER: Inhibition of human LNCaP-Clone-FGC cell growth in a cell viability assay.

[39] = test system: no-10; assay type: functional, cell-based, Homo sapiens; conditions: Homo sapiens;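 note: growth inhibition of no-10 cells, read out with a cell viability assay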
Description: SANGER: Inhibition of human no-10 cell growth in a cell viability assay.

[40] = test system: SK-MEL-2; assay type: functional, cell-based, Homo sapiens; conditions: Homo sapiens, SK-MEL-2;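 note: growth inhibition of human SK-MEL-2 cells measured with a cell viability assay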
Description: SANGER: Inhibition of human SK-MEL-2 cell growth in a cell viability assay.

[41] = test system: MC116; assay type: functional, cell-based; conditions: Homo sapiens;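 note: growth inhibition of MC116 cells, read out with a cell viability assay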
Description: SANGER: Inhibition of human MC116 cell growth in a cell viability assay.

[42] = test system: RPMI-7951; assay type: functional, cell-based, Homo sapiens; conditions: Homo sapiens, RPMI-7951
Description: SANGER: Inhibition of human RPMI-7951 cell growth in a cell viability assay.

[43] = test system: SF-539; assay type: functional, cell-based, Homo sapiens; conditions: Homo sapiens, SF-539;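 note: Read-out is a cell viability assay, with IC50 reflecting inhibition of cell growth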
Description: SANGER: Inhibition of human SF539 cell growth in a cell viability assay.

[44] = test system: G-402; assay type: functional, cell-based, Homo sapiens; conditions: Homo sapiens, G-402
Description: SANGER: Inhibition of human G-402 cell growth in a cell viability assay.

[45] = test system: A673; assay type: functional, cell-based, Homo sapiens; conditions: Homo sapiens, A673;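 note: growth inhibition of human A673 cells, read out through a cell viability assay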
Description: SANGER: Inhibition of human A673 cell growth in a cell viability assay.

[46] = test system: SK-MEL-1; assay type: functional, cell-based; conditions: Homo sapiens;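 note: growth inhibition of human SK-MEL-1 cells, read out by a cell viability assay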
Description: SANGER: Inhibition of human SK-MEL-1 cell growth in a cell viability assay.

[47] = test system: DOK; assay type: functional, cell-based, Homo sapiens; conditions: Homo sapiens, DOK;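 note: cell viability assay read-out, values reflect inhibition of cell growth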
Description: SANGER: Inhibition of human DOK cell growth in a cell viability assay.

[48] = test system: KGN; assay type: functional, cell-based, Homo sapiens; conditions: Homo sapiens, KGN;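 note: growth inhibition of KGN cells, read out with a cell viability assay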
Description: SANGER: Inhibition of human KGN cell growth in a cell viability assay.

[49] = test system: EW-3; assay type: functional, cell-based; conditions: Homo sapiens;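 note: cell viability assay read-out, IC50 reflects inhibition of growth of the EW-3 cells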
Description: SANGER: Inhibition of human EW-3 cell growth in a cell viability assay.

[50] = test system: HEC-1; assay type: functional, cell-based, Homo sapiens; conditions: Homo sapiens, HEC-1;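 note: growth inhibition of the cell line, read out with a cell viability assay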
Description: SANGER: Inhibition of human HEC-1 cell growth in a cell viability assay.

[51] = test system: LS-123; assay type: functional, cell-based, Homo sapiens; conditions: Homo sapiens, LS-123
Description: SANGER: Inhibition of human LS-123 cell growth in a cell viability assay.

[52] = test system: BFTC-909; assay type: functional, cell-based, Homo sapiens; conditions: Homo sapiens, BFTC-909
Description: SANGER: Inhibition of human BFTC-909 cell growth in a cell viability assay.

COc1ccc(C2=N[C@@H](c3ccc(Cl)cc3)[C@@H](c3ccc(Cl)cc3)N2C(=O)N2CCNC(=O)C2)c(OC(C)C)c1 [NUTLIN-3]
IC50 [1]: > 8 µM
IC50 [2]: > 8 µM
IC50 [3]: > 8 µM
IC50 [4]: > 8 µM
IC50 [5]: > 8 µM
IC50 [6]: > 8 µM
IC50 [7]: 3.06 µM
IC50 [8]: > 8 µM
IC50 [9]: > 8 µM
IC50 [10]: 4.53 µM
IC50 [11]: > 8 µM
IC50 [12]: > 8 µM
IC50 [13]: > 8 µM
IC50 [14]: > 8 µM
IC50 [15]: > 8 µM
IC50 [16]: > 8 µM
IC50 [17]: > 8 µM
IC50 [18]: > 8 µM
IC50 [19]: > 8 µM
IC50 [20]: > 8 µM
IC50 [21]: 2.33 µM
IC50 [22]: > 8 µM
IC50 [23]: > 8 µM
IC50 [24]: 7.63 µM
IC50 [25]: > 8 µM
IC50 [26]: > 8 µM
IC50 [27]: > 8 µM
IC50 [28]: > 8 µM
IC50 [29]: > 8 µM
IC50 [30]: 3.3 µM
IC50 [31]: 3.17 µM
IC50 [32]: > 8 µM
IC50 [33]: > 8 µM
IC50 [34]: > 8 µM
IC50 [35]: > 8 µM
IC50 [36]: 2.42 µM
IC50 [37]: > 8 µM
IC50 [38]: 2.64 µM
IC50 [39]: > 8 µM
IC50 [40]: > 8 µM
IC50 [41]: > 8 µM
IC50 [42]: > 8 µM
IC50 [43]: > 8 µM
IC50 [44]: 3.81 µM
IC50 [45]: > 8 µM
IC50 [46]: > 8 µM
IC50 [47]: > 8 µM
IC50 [48]: 3.08 µM
IC50 [49]: > 8 µM
IC50 [50]: > 8 µM
IC50 [51]: > 8 µM
IC50 [52]: > 8 µM

Cc1cnc(-c2cnc(NCCNc3ccc(C#N)cn3)nc2-c2ccc(Cl)cc2Cl)[nH]1 [LADUVIGLUSIB]
IC50 [1]: > 2.56 µM
IC50 [2]: > 2.56 µM
IC50 [3]: > 2.56 µM
IC50 [4]: > 2.56 µM
IC50 [5]: > 2.56 µM
IC50 [6]: > 2.56 µM
IC50 [7]: > 2.56 µM
IC50 [8]: > 2.56 µM
IC50 [9]: > 2.56 µM
IC50 [10]: > 2.56 µM
IC50 [11]: > 2.56 µM
IC50 [12]: > 2.56 µM
IC50 [13]: > 2.56 µM
IC50 [14]: > 2.56 µM
IC50 [15]: > 2.56 µM
IC50 [16]: > 2.56 µM
IC50 [17]: > 2.56 µM
IC50 [18]: > 2.56 µM
IC50 [19]: > 2.56 µM
IC50 [20]: > 2.56 µM
IC50 [21]: > 2.56 µM
IC50 [22]: > 2.56 µM
IC50 [23]: > 2.56 µM
IC50 [24]: > 2.56 µM
IC50 [25]: > 2.56 µM
IC50 [26]: > 2.56 µM
IC50 [27]: > 2.56 µM
IC50 [28]: 0.846 µM
IC50 [29]: > 2.56 µM
IC50 [30]: > 2.56 µM
IC50 [31]: > 2.56 µM
IC50 [32]: > 2.56 µM
IC50 [33]: > 2.56 µM
IC50 [34]: > 2.56 µM
IC50 [35]: > 2.56 µM
IC50 [36]: > 2.56 µM
IC50 [37]: > 2.56 µM
IC50 [38]: > 2.56 µM
IC50 [39]: > 2.56 µM
IC50 [40]: > 2.56 µM
IC50 [41]: > 2.56 µM
IC50 [42]: > 2.56 µM
IC50 [43]: > 2.56 µM
IC50 [44]: > 2.56 µM
IC50 [45]: > 2.56 µM
IC50 [46]: > 2.56 µM
IC50 [47]: > 2.56 µM
IC50 [48]: > 2.56 µM
IC50 [49]: > 2.56 µM
IC50 [50]: > 2.56 µM
IC50 [51]: > 2.56 µM
IC50 [52]: > 2.56 µM

O=C(NOCC1CC1)c1ccc(F)c(F)c1Nc1ccc(I)cc1Cl [CI-1040]
IC50 [1]: 1.52 µM
IC50 [2]: > 10 µM
IC50 [3]: 5.56 µM
IC50 [4]: > 10 µM
IC50 [5]: 8.92 µM
IC50 [6]: 5.84 µM
IC50 [7]: > 10 µM
IC50 [8]: > 10 µM
IC50 [9]: > 10 µM
IC50 [10]: 5.03 µM
IC50 [11]: > 10 µM
IC50 [12]: > 10 µM
IC50 [13]: 3.85 µM
IC50 [14]: 4.29 µM
IC50 [15]: > 10 µM
IC50 [16]: > 10 µM
IC50 [17]: 2.07 µM
IC50 [18]: 5.37 µM
IC50 [19]: 9 µM
IC50 [20]: > 10 µM
IC50 [21]: > 10 µM
IC50 [22]: > 10 µM
IC50 [23]: 7.1 µM
IC50 [24]: 2.65 µM
IC50 [25]: 7.03 µM
IC50 [26]: > 10 µM
IC50 [27]: 3.68 µM
IC50 [28]: > 10 µM
IC50 [29]: 5.62 µM
IC50 [30]: 6.81 µM
IC50 [31]: 0.81 µM
IC50 [32]: 0.241 µM
IC50 [33]: > 10 µM
IC50 [34]: > 10 µM
IC50 [35]: 5.47 µM
IC50 [36]: 8.2 µM
IC50 [37]: > 10 µM
IC50 [38]: > 10 µM
IC50 [39]: > 10 µM
IC50 [40]: 1.57 µM
IC50 [41]: > 10 µM
IC50 [42]: 4.26 µM
IC50 [43]: > 10 µM
IC50 [44]: > 10 µM
IC50 [45]: 8.63 µM
IC50 [46]: 1.23 µM
IC50 [47]: 2.36 µM
IC50 [48]: 9.84 µM
IC50 [49]: > 10 µM
IC50 [50]: > 10 µM
IC50 [51]: > 10 µM
IC50 [52]: > 10 µM
